Test: Rat pharmacokinetic evaluation assay (oral)
Type: in vivo
Settings: male, SD rats, p.o. 5 mg/kg, plasma; for MRT inf: read-out: MRT 0-∞
Protocol: 6. Experimental conclusion: It can be seen from the data in the table that the example compounds shown in the present invention show good antagonistic effects in the experiment of the effect on calcium current in cells stably expressing ETA receptors. 2. Rat pharmacokinetic evaluation assay 1. Study objective: SD rats were used as test animals to study the pharmacokinetic behaviour of the compounds of the present invention in rat (plasma) after oral administration at a dose of 5 mg/kg. 2. Experimental scheme: • 2.1 Experimental drugs: The example compounds of the present invention, made in house. • 2.2 Experimental animals: 3 SD rats/group, male, from Shanghai Jiesijie Experimental Animal Co., Ltd., animal production license number (SCXK (Shanghai) 2013-0006 N0.311620400001794). 2.3 Preparation formulation: 0.5% CMC-Na (1% Tween80) was dissolved by ultrasonication, and formulated into a clear solution or homogeneous suspension. 2.4 Administration: • p.o. respectively after the rats were fasted overnight; • the p.o. dose was 5 mg/kg and the administration volume was 10 mL/kg. 2.5 Sample collection: After oral administration of rats, 0.2 mL of blood was collected from the jugular vein at 0.25 h, 0.5 h, 1.0 h, 2.0 h, and 4.0 h, placed in an EDTA-2K test tube, and centrifuged at 6000 rpm for 6 min at 4°C to separate plasma which was stored at - 80°C; the animals were fed 4 h after administration. 2.6 Sample treatment: • 1) Acetonitrile (160 µL) was added to plasma sample (40 µL) for precipitation, and the mixture was centrifuged at 3500 × g for 5-20 min. • 2) The treated supernatant solution was taken and subjected to LC/MS/MS to analyse the concentrations of the test compound. LC/MS/MS analysis instrument: AB Sciex API 4000 Qtrap. 2.7 Liquid phase analysis: • Liquid phase conditions: Shimadzu LC-20AD pump • Chromatographic column: Agilent ZORBAX XDB-C18 (50×2.1 mm, 3.5 µm), mobile phase: liquid A: 0.1% formic acid in water, liquid B: acetonitrile • Flow rate: 0.4 mL/min • Elution time: 0-4.0 min, the eluent was as follows:
The main pharmacokinetic parameters were calculated using WinNonlin 6.1. The results of pharmacokinetic experiments in rats are as shown in Table 13 below: Table 13: Pharmacokinetic parameters of the compounds of the present invention in rats after oral administration

Compound: [2H]C([2H])(c1ccc(-c2ccccc2S(=O)(=O)Nc2noc(C)c2Cl)c(COCC)c1)N1C(=O)C2(CCCC2)N=C1CCCC [Example 2, 4'-((2-Butyl-4-oxo-1,3-diazaspiro[4.4]non-1-en-3-yl)methyl-d2)-N-(4-chloro-5-methylisoxazol-3-yl)-2'-(ethoxymethyl)-[1,1'-biphenyl]-2-sulfonamide]
- AUC(0-inf): 10200 ng·h/mL
- Cmax: 1690 ng/mL
- Tmax: 0.5 h
- MRT inf: 8.4 h

Compound: CCCCC1=NC2(CCCC2)C(=O)N1Cc1ccc(-c2ccccc2S(=O)(=O)Nc2noc(C)c2Cl)c(COCC)c1 [Example 8, 2-[4-[(2-Butyl-4-oxo-1,3-diazaspiro[4.4]non-1-en-3-yl)methyl]-2-(ethoxymethyl)phenyl]-N-(4-chloro-5-methyl-isoxazol-3-yl)benzenesulfonamide]
- AUC(0-inf): 16000 ng·h/mL
- Cmax: 2140 ng/mL
- Tmax: 0.5 h
- MRT inf: 8.6 h
